According to patent US20110105515A1, “TARGETING THE ONCOPROTEIN NUCLEOPHOSMIN” (President and Fellows of Harvard College, priority 2007, published 2011):
Like-named read-outs stand apart in the source and are kept apart here.

How the values were obtained:
[1] = tested on: UO-31; settings: UO-31 (Renal Cancer), 48 hours, SRB; for CC50: read-out: LC50
[2] = tested on: BT-549; settings: BT-549 (Breast Cancer), 48 hours, SRB; for CC50: read-out: LC50
[3] = tested on: U251; settings: U251 (CNS Cancer), 48 hours, SRB; for CC50: read-out: LC50
[4] = tested on: IGROV1; settings: IGROV1 (Ovarian Cancer), 48 hours, SRB; for CC50: read-out: LC50
[5] = tested on: HS578T; settings: HS578T (Breast Cancer), 48 hours, SRB; for CC50: read-out: LC50
[6] = tested on: M14; settings: M14 (Melanoma), 48 hours, SRB; for CC50: read-out: LC50
[7] = tested on: SW-620; settings: SW-620 (Colon Cancer), 48 hours, SRB
[8] = tested on: 786-0; settings: 786-0 (Renal Cancer), 48 hours, SRB; for CC50: read-out: LC50
[9] = tested on: SR; settings: SR (Leukemia), 48 hours, SRB; for CC50: read-out: LC50
[10] = tested on: MOLT-4; settings: MOLT-4 (Leukemia), 48 hours, SRB; for CC50: read-out: LC50
[11] = tested on: HCT-15; settings: HCT-15 (Colon Cancer), 48 hours, SRB; for CC50: read-out: LC50
[12] = tested on: SNB-75; settings: SNB-75 (CNS Cancer), 48 hours, SRB; for CC50: read-out: LC50
[13] = tested on: HT29; settings: HT29 (Colon Cancer), 48 hours, SRB; for CC50: read-out: LC50
[14] = tested on: NCI-H522; settings: NCI-H522 (Non-Small Cell Lung Cancer), 48 hours, SRB; for CC50: read-out: LC50
[15] = tested on: HL-60(TB)
[16] = tested on: T-47D; settings: T-47D (Breast Cancer), 48 hours, SRB; for CC50: read-out: LC50
[17] = tested on: OVCAR-3; settings: OVCAR-3 (Ovarian Cancer), 48 hours, SRB; for CC50: read-out: LC50
[18] = tested on: A549/ATCC; settings: A549/ATCC (Non-Small Cell Lung Cancer), 48 hours, SRB; for CC50: read-out: LC50
[19] = tested on: TK-10; settings: TK-10 (Renal Cancer), 48 hours, SRB; for CC50: read-out: LC50
[20] = tested on: MDA-MB-435; settings: MDA-MB-435 (Breast Cancer), 48 hours, SRB; for CC50: read-out: LC50
[21] = tested on: HCT-116; settings: HCT-116 (Colon Cancer), 48 hours, SRB; for CC50: read-out: LC50
[22] = tested on: LOX IMVI; settings: LOX IMVI (Melanoma), 48 hours, SRB
[23] = tested on: RXF 393; settings: RXF 393 (Renal Cancer), 48 hours, SRB; for CC50: read-out: LC50
[24] = tested on: SNB-19; settings: SNB-19 (CNS Cancer), 48 hours, SRB; for CC50: read-out: LC50
[25] = tested on: UACC-257; settings: UACC-257 (Melanoma), 48 hours, SRB; for CC50: read-out: LC50
[26] = tested on: OVCAR-5; settings: OVCAR-5 (Ovarian Cancer), 48 hours, SRB; for CC50: read-out: LC50
[27] = HL-60(TB) (Leukemia), 48 hours, SRB

CN(C)c1cccc2c(S(=O)(=O)NCCCCCCCCCCOc3ccc4c(c3)[N+]([O-])=C3C4=C[C@@]45NC(=O)C6(CCCN6C4=O)CC5C3(C)C)cccc12 (some centres unmarked) [Dansyl Analogue]
GI50 [1]: 480 nM | TGI [1]: 2080 nM | CC50 [1]: 6480 nM | GI50 [2]: 515 nM | TGI [2]: 6730 nM | CC50 [2]: > 100000 nM | GI50 [3]: 175 nM | TGI [3]: 334 nM | CC50 [3]: 640 nM | GI50 [4]: 272 nM | TGI [4]: 695 nM | CC50 [4]: 3390 nM | GI50 [5]: 355 nM | TGI [5]: 36900 nM | CC50 [5]: > 100000 nM | GI50 [6]: 423 nM | TGI [6]: 2030 nM | CC50 [6]: 13600 nM | GI50 [7]: 266 nM | GI50 [8]: 325 nM | TGI [8]: 1070 nM | CC50 [8]: 5210 nM | GI50 [9]: 371 nM | TGI [9]: 1940 nM | CC50 [9]: 23700 nM | GI50 [10]: 276 nM | CC50 [10]: > 100000 nM | GI50 [11]: 484 nM | TGI [11]: 1750 nM | CC50 [11]: 4180 nM | GI50 [12]: 273 nM | TGI [12]: 930 nM | CC50 [12]: 3430 nM | GI50 [13]: 454 nM | TGI [13]: 1510 nM | CC50 [13]: 3960 nM | GI50 [14]: 260 nM | TGI [14]: 857 nM | CC50 [14]: 8890 nM | GI50 [15, 27]: 211 nM | TGI [15, 27]: 1160 nM | CC50 ([15]; read-out: LC50, HL-60(TB) (Leukemia), 48 hours, SRB): > 100000 nM | GI50 [16]: 152 nM | TGI [16]: 572 nM | CC50 [16]: 3140 nM | GI50 [17]: 201 nM | TGI [17]: 413 nM | CC50 [17]: 849 nM | GI50 [18]: 2170 nM | TGI [18]: 5370 nM | CC50 [18]: 18100 nM | GI50 [19]: 716 nM | TGI [19]: 2810 nM | CC50 [19]: 9660 nM | GI50 [20]: 382 nM | TGI [20]: 1920 nM | CC50 [20]: 23100 nM | GI50 [21]: 349 nM | TGI [21]: 1150 nM | CC50 [21]: 5980 nM | GI50 [22]: 166 nM | TGI [22]: 310 nM | CC50 ([22]; read-out: LC50): 579 nM | GI50 [23]: 611 nM | TGI [23]: 5920 nM | CC50 [23]: 44400 nM | GI50 [24]: 359 nM | TGI [24]: 1440 nM | CC50 [24]: 4100 nM | GI50 [25]: 1020 nM | TGI [25]: 2810 nM | CC50 [25]: 7740 nM | GI50 [26]: 1460 nM | TGI [26]: 2960 nM | CC50 [26]: 5970 nM

CC1(C)C=Cc2c(ccc3c4c(n(O)c23)C(C)(C)C2CC35CCCN3C(=O)C2(NC5=O)C4SCC(NC(=O)CCC(N)C(=O)O)C(=O)NCC(=O)O)O1 (centres unmarked) [Glutathione Adduct]
GI50 [1]: 779 nM | TGI [1]: 4070 nM | CC50 [1]: 15000 nM | GI50 [2]: 923 nM | TGI [2]: 2700 nM | CC50 [2]: 10500 nM | GI50 [3]: 819 nM | TGI [3]: 1970 nM | CC50 [3]: 4760 nM | GI50 [4]: 1060 nM | TGI [4]: 2810 nM | CC50 [4]: 11900 nM | GI50 [5]: 1110 nM | TGI [5]: 3790 nM | CC50 [5]: > 50000 nM | GI50 [6]: 996 nM | TGI [6]: 2630 nM | CC50 [6]: 11200 nM | GI50 [7]: 713 nM | TGI [7]: 1500 nM | CC50 ([7]; read-out: LC50): 3810 nM | GI50 [8]: 1120 nM | TGI [8]: 2440 nM | CC50 [8]: 6030 nM | GI50 [9]: 228 nM | TGI [9]: 1280 nM | CC50 [9]: 16700 nM | GI50 [10]: 425 nM | TGI [10]: 1750 nM | CC50 [10]: 20600 nM | GI50 [11]: 840 nM | TGI [11]: 2040 nM | CC50 [11]: 4930 nM | GI50 [12]: 896 nM | TGI [12]: 2450 nM | CC50 [12]: 8470 nM | GI50 [13]: 900 nM | TGI [13]: 2010 nM | CC50 [13]: 4510 nM | GI50 [14]: 727 nM | TGI [14]: 1950 nM | CC50 [14]: 6290 nM | CC50 [15]: 13300 nM | GI50 [15]: 321 nM | TGI [15]: 1620 nM | GI50 [16]: 319 nM | TGI [16]: 2470 nM | CC50 [16]: 46000 nM | GI50 [17]: 735 nM | TGI [17]: 1520 nM | CC50 [17]: 3130 nM | GI50 [18]: 1370 nM | TGI [18]: 3940 nM | CC50 [18]: 15800 nM | GI50 [19]: 1090 nM | TGI [19]: 5460 nM | CC50 [19]: 17400 nM | GI50 [20]: 1100 nM | TGI [20]: 5200 nM | CC50 [20]: 22000 nM | GI50 [21]: 871 nM | TGI [21]: 1760 nM | CC50 [21]: 3550 nM | GI50 [22]: 806 nM | TGI [22]: 1560 nM | GI50 [23]: 829 nM | TGI [23]: 1750 nM | CC50 [23]: 3690 nM | GI50 [24]: 1430 nM | TGI [24]: 6240 nM | CC50 [24]: 18700 nM | GI50 [25]: 1070 nM | TGI [25]: 5430 nM | CC50 [25]: 17300 nM | GI50 [26]: 971 nM | TGI [26]: 3030 nM | CC50 [26]: 12000 nM
